Where “and” joins values, the source holds several entries; their conditions need not be identical. Equal values may be shown once. Toxic doses and inconclusive results are not listed. Cut-off read from the data, not from the text of the source: active = T/C of 150% or more; inactive = T/C below 125%.
Tested on: L1210 leukemia ip in BDF1 mice, survival T/C
Assay: NCI In Vivo Anticancer Drug Screen. Data for tumor model L1210 Leukemia (intraperitoneal) in B6D2F1 (BDF1) mice
Conditions: endpoint: mean survival time, higher = longer survival
Method in brief: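 Read-out is survival time, reported as the treated-group measurement over the vehicle-control measurement.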

[1] = dose: 100.0 mg/kg/injection, schedule: Q01DX001 (ip), vehicle: saline
[2] = dose: 100.0 mg/kg/injection, schedule: Q01DX009 (ip), vehicle: saline
[3] = dose: 200.0 mg/kg/injection, schedule: Q01DX001 (ip), vehicle: saline
[4] = dose: 400.0 mg/kg/injection, schedule: Q01DX001 (ip), vehicle: saline
[5] = dose: 12.5 mg/kg/injection, schedule: Q04DX003 (ip), vehicle: saline with Tween-80
[6] = dose: 25.0 mg/kg/injection, schedule: Q04DX003 (ip), vehicle: saline
[7] = dose: 50.0 mg/kg/injection, schedule: Q04DX003 (ip), vehicle: saline
[8] = dose: 100.0 mg/kg/injection, schedule: Q04DX003 (ip), vehicle: saline
[9] = dose: 100.0 mg/kg/injection, schedule: Q04DX003 (ip), vehicle: Klucel (hydroxypropylcellulose) (HPC)
[10] = dose: 200.0 mg/kg/injection, schedule: Q04DX003 (ip), vehicle: Klucel (hydroxypropylcellulose) (HPC)
[11] = dose: 400.0 mg/kg/injection, schedule: Q04DX003 (ip), vehicle: Klucel (hydroxypropylcellulose) (HPC)

Measured: T/C

COC(=O)C1CC2(Br)C(Br)=C(Br)C1(Br)C2(Br)Br (stereo not drawn)
inactive: [1] 88 % of control | [2] 102 % of control | [3] 100 % of control | dose: 200.0 mg/kg/injection, schedule: Q01DX009 (ip), vehicle: saline 98 % of control | [4] 88 % of control | dose: 400.0 mg/kg/injection, schedule: Q01DX009 (ip), vehicle: saline 91 % of control

Cc1nc2c(ncn2C2OC(CO)C(O)C2O)c(=O)[nH]1 (stereo not drawn)
inactive: dose: 100.0 mg/kg/injection, schedule: Q01DX005 (ip), vehicle: saline 103 % of control | dose: 200.0 mg/kg/injection, schedule: Q01DX005 (ip), vehicle: saline 93 % of control

CCCCN(C)N=Nc1ccc(C(=N)N)cc1
inactive: dose: 5.0 mg/kg/injection, schedule: Q01DX001 (ip), vehicle: carboxymethylcellulose (CMC) 106 % of control | dose: 10.0 mg/kg/injection, schedule: Q01DX001 (ip), vehicle: carboxymethylcellulose (CMC) 100 % of control | dose: 20.0 mg/kg/injection, schedule: Q01DX001 (ip), vehicle: carboxymethylcellulose (CMC) 100 % of control | dose: 40.0 mg/kg/injection, schedule: Q01DX001 (ip), vehicle: carboxymethylcellulose (CMC) 95 % of control | dose: 80.0 mg/kg/injection, schedule: Q01DX001 (ip), vehicle: carboxymethylcellulose (CMC) 101 % of control

Cc1c(C(=O)OCCCl)c(=O)n(-c2ccccc2)n1C
inactive: [1] 98 % of control | [3] 98 % of control

CCOC(=O)c1cnc(C)nc1Nc1c(C)cccc1C
inactive: dose: 100.0 mg/kg/injection, schedule: Q01DX001 (ip), vehicle: Klucel (hydroxypropylcellulose) (HPC) 99 % of control | dose: 200.0 mg/kg/injection, schedule: Q01DX001 (ip), vehicle: Klucel (hydroxypropylcellulose) (HPC) 105 % of control | dose: 400.0 mg/kg/injection, schedule: Q01DX001 (ip), vehicle: Klucel (hydroxypropylcellulose) (HPC) 100 % of control

CCOCc1nc(NC(C)=O)nc(NC(C)=O)c1-c1ccc(Cl)cc1
inactive: dose: 75.0 mg/kg/injection, schedule: Q01DX001 (ip), vehicle: saline with Tween-80 100 % of control | dose: 150.0 mg/kg/injection, schedule: Q01DX001 (ip), vehicle: saline with Tween-80 96 % of control

CC(C)CC(CC(C)C)NCC(C)OC(=O)c1ccc(N)cc1 (stereo not drawn)
inactive: dose: 12.5 mg/kg/injection, schedule: Q01DX009 (ip), vehicle: saline with Tween-80 96 % of control and 104 % of control | [5] 92 % of control | dose: 25.0 mg/kg/injection, schedule: Q01DX009 (ip), vehicle: saline with Tween-80 102 % of control and 105 % of control | dose: 25.0 mg/kg/injection, schedule: Q01DX009 (ip), vehicle: saline 98 % of control | dose: 25.0 mg/kg/injection, schedule: Q04DX003 (ip), vehicle: saline with Tween-80 104 % of control | [6] 100 % of control | dose: 50.0 mg/kg/injection, schedule: Q01DX009 (ip), vehicle: saline with Tween-80 96 % of control and 106 % of control | dose: 50.0 mg/kg/injection, schedule: Q01DX009 (ip), vehicle: saline 100 % of control | dose: 50.0 mg/kg/injection, schedule: Q04DX003 (ip), vehicle: saline with Tween-80 93 % of control | [7] 96 % of control | dose: 75.0 mg/kg/injection, schedule: Q01DX001 (ip), vehicle: other 92 % of control | [2] 88 % of control | [8] 102 % of control and 91 % of control

N#CSCSC#N
inactive: dose: 3.12 mg/kg/injection, schedule: Q04DX003 (ip), vehicle: saline with Tween-80 98 % of control | dose: 6.25 mg/kg/injection, schedule: Q04DX003 (ip), vehicle: saline with Tween-80 96 % of control | [5] 90 % of control

NC(=O)C1(Nc2ccc(-c3ccc(I)cc3)cc2)CCCC1
inactive: dose: 50.0 mg/kg/injection, schedule: Q01DX001 (ip), vehicle: carboxymethylcellulose (CMC) 86 % of control | dose: 100.0 mg/kg/injection, schedule: Q01DX001 (ip), vehicle: carboxymethylcellulose (CMC) 86 % of control | dose: 200.0 mg/kg/injection, schedule: Q01DX001 (ip), vehicle: carboxymethylcellulose (CMC) 86 % of control | dose: 400.0 mg/kg/injection, schedule: Q01DX001 (ip), vehicle: carboxymethylcellulose (CMC) 90 % of control

CO/C(=N\S(=O)(=O)c1ccccc1)C1CC=CCC1/C(=N\S(=O)(=O)c1ccccc1)OC (stereo not drawn)
inactive: [9] 100 % of control | [10] 94 % of control | [11] 100 % of control

NC(N)=N/N=C/C(F)(F)F
inactive: dose: 15.0 mg/kg/injection, schedule: Q01DX Z (ip), vehicle: methylcellulose (MC) 105 % of control | dose: 30.0 mg/kg/injection, schedule: Q01DX Z (ip), vehicle: methylcellulose (MC) 102 % of control | dose: 60.0 mg/kg/injection, schedule: Q01DX Z (ip), vehicle: methylcellulose (MC) 112 % of control | dose: 60.0 mg/kg/injection, schedule: Q01DX Z (oral), vehicle: methylcellulose (MC) 92 % of control | dose: 120.0 mg/kg/injection, schedule: Q01DX Z (ip), vehicle: methylcellulose (MC) 97 % of control | dose: 120.0 mg/kg/injection, schedule: Q01DX Z (oral), vehicle: methylcellulose (MC) 93 % of control | dose: 240.0 mg/kg/injection, schedule: Q01DX Z (ip), vehicle: methylcellulose (MC) 88 % of control | dose: 240.0 mg/kg/injection, schedule: Q01DX Z (oral), vehicle: methylcellulose (MC) 102 % of control | dose: 420.0 mg/kg/injection, schedule: Q01DX Z (ip), vehicle: methylcellulose (MC) 88 % of control | dose: 480.0 mg/kg/injection, schedule: Q01DX Z (oral), vehicle: methylcellulose (MC) 95 % of control

CCOC(=O)/C(C#N)=C/c1cccn1Cc1cc2ccccc2c2ccccc12
inactive: dose: 25.0 mg/kg/injection, schedule: Q04DX002 (ip), vehicle: saline 111 % of control | dose: 50.0 mg/kg/injection, schedule: Q04DX002 (ip), vehicle: saline 111 % of control | dose: 100.0 mg/kg/injection, schedule: Q04DX002 (ip), vehicle: saline 105 % of control

COC(=O)C1C2CCc3cc(OC)ccc3C2CC(=O)C1(C)C(=O)OC (stereo not drawn)
inactive: dose: 100.0 mg/kg/injection, schedule: Q01DX009 (sc), vehicle: steriod suspending solution 98 % of control | dose: 200.0 mg/kg/injection, schedule: Q01DX009 (sc), vehicle: steriod suspending solution 98 % of control | dose: 400.0 mg/kg/injection, schedule: Q01DX009 (sc), vehicle: steriod suspending solution 107 % of control

CC(=O)NN1C(=O)c2ccccc2C1=O
inactive: dose: 50.0 mg/kg/injection, schedule: Q04DX003 (ip), vehicle: Klucel (hydroxypropylcellulose) (HPC) 97 % of control | [9] 104 % of control | [10] 101 % of control

O=C(c1ccccc1)C(C(C(=O)c1ccccc1)N1CCOCC1)N1CCOCC1 (stereo not drawn)
inactive: dose: 50.0 mg/kg/injection, schedule: Q01DX001 (ip), vehicle: saline 94 % of control | [1] 94 % of control | [3] 102 % of control | [4] 94 % of control

CCNNC
inactive: dose: 12.5 mg/kg/injection, schedule: Q04DX003 (ip), vehicle: saline 104 % of control | [6] 103 % of control | [7] 101 % of control | [8] 111 % of control | dose: 200.0 mg/kg/injection, schedule: Q04DX003 (ip), vehicle: saline 108 % of control

CC(=O)CC(=O)Nc1cccc([N+](=O)[O-])c1
inactive: dose: 100.0 mg/kg/injection, schedule: Q01DX009 (ip), vehicle: Klucel (hydroxypropylcellulose) (HPC) 98 % of control | [9] 97 % of control | [10] 91 % of control | [11] 93 % of control

CCCCCCCC(=O)NO
inactive: dose: 100.0 mg/kg/injection, schedule: Q04DX003 (ip), vehicle: saline with Tween-80 98 % of control | dose: 200.0 mg/kg/injection, schedule: Q04DX003 (ip), vehicle: saline with Tween-80 102 % of control | dose: 400.0 mg/kg/injection, schedule: Q04DX003 (ip), vehicle: saline with Tween-80 102 % of control

Reference: PubChem BioAssay AID248 (DTP/NCI, 2004)
